In ChEMBL document CHEMBL1909046, “DrugMatrix in vitro pharmacology data”:

How the values were obtained:
[1] = molecular target: Beta-1 adrenergic receptor (Homo sapiens, UniProt P08588); assay: DRUGMATRIX: Adrenergic beta1 radioligand binding (ligand: [125I] Cyanopindolol); assay type: cell membranes, CHO-K1, Membrane; conditions: cho-k1; Not Active = under 50% inhibition at 10 µM
Cytochrome P450 2C19 = Cytochrome P450 2C19 (Homo sapiens, UniProt P33261); conditions: bti-tn-5b1-4; also: in other assays of this panel Not Active means under 50% inhibition at 10 µM
[2] = DRUGMATRIX: Sigma2 radioligand binding (ligand: [3H] Ifenprodil); assay type: cell membranes, Rattus norvegicus, Wistar, Brain, Membrane; conditions: Not Active = under 50% inhibition at 10 µM
[3] = molecular target: T1, Neuropeptide Y receptor type 1 (Homo sapiens, UniProt P25929); assay type: cell membranes, Membrane; conditions: sk-n-mc; also: in other assays of this panel Not Active means under 50% inhibition at 10 µM
T1 sequence (P25929 whole entry): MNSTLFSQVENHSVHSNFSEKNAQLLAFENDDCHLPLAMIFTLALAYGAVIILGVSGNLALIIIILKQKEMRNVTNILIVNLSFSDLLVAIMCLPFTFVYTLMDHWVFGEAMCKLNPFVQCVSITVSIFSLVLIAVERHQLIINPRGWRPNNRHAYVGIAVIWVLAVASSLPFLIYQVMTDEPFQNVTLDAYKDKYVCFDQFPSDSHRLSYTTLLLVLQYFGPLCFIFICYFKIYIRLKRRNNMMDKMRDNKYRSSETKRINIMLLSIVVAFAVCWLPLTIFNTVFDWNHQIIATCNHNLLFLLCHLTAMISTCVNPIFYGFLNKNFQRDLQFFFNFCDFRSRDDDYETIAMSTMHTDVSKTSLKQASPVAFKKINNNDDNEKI

[4] = molecular target: Aldo-keto reductase family 1 member B1 (Rattus norvegicus, UniProt P07943); assay type: tissue-based, Lens of camera-type eye;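 also: inhibition of aldose reductase enzyme activity, measured with DL-glyceraldehyde as the substrate; in other assays of this panel Not Active means under 50% inhibition at 10 µM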
[5] = molecular target: Tyrosine-protein kinase Fyn (Homo sapiens, UniProt P06241); assay: biochemical; assay type: cell-based, Insect cells; conditions: insect cells;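 also: enzymatic inhibition of Fyn kinase activity measured with Poly(Glu:Tyr) as the phosphorylation substrate; in other assays of this panel Not Active means under 50% inhibition at 10 µM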
[6] = molecular target: T2, Neuropeptide Y receptor type 2 (Homo sapiens, UniProt P49146); assay type: cell membranes, KAN-TS, Membrane; conditions: kan-ts; also: in other assays of this panel Not Active means under 50% inhibition at 10 µM
T2 sequence (P49146 whole entry): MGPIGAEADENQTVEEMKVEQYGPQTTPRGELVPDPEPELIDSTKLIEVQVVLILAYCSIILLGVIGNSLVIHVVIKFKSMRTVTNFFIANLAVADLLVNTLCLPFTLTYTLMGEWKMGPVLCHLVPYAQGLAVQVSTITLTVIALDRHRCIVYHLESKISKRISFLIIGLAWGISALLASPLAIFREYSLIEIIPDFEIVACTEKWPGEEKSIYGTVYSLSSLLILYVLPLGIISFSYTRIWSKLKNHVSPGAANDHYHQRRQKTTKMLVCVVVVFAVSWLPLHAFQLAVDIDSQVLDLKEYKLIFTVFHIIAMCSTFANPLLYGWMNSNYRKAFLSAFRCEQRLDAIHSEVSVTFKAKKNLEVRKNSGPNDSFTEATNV

Cytochrome P450 2C19, sequence (P33261 whole entry): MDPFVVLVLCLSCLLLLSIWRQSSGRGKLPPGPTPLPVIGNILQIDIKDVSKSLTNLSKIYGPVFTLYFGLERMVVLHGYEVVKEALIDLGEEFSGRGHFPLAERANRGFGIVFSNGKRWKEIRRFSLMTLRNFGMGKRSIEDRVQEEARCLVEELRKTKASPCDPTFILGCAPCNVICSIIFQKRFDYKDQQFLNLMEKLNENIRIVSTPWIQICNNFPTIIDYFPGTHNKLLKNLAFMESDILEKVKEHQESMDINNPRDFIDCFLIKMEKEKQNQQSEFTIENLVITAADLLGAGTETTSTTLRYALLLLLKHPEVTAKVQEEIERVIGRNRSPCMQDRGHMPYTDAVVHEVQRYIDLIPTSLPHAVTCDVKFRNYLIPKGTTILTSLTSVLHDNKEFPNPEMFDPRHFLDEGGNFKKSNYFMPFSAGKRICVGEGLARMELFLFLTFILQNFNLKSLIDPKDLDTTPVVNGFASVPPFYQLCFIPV
Beta-1 adrenergic receptor, sequence (P08588 whole entry): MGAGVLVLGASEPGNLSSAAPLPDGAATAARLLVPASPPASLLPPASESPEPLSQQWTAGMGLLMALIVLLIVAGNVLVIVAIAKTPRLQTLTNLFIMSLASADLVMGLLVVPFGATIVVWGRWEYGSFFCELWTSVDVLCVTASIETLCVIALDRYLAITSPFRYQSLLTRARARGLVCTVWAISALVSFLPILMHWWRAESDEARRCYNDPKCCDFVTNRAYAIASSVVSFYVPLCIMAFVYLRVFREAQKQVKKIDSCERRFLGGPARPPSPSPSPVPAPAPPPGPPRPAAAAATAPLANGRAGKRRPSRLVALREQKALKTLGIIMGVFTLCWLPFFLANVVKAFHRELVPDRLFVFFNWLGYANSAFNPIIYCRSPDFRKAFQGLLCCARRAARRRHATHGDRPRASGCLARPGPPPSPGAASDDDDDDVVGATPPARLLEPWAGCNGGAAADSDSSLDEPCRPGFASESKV
Tyrosine-protein kinase Fyn, sequence (P06241 whole entry): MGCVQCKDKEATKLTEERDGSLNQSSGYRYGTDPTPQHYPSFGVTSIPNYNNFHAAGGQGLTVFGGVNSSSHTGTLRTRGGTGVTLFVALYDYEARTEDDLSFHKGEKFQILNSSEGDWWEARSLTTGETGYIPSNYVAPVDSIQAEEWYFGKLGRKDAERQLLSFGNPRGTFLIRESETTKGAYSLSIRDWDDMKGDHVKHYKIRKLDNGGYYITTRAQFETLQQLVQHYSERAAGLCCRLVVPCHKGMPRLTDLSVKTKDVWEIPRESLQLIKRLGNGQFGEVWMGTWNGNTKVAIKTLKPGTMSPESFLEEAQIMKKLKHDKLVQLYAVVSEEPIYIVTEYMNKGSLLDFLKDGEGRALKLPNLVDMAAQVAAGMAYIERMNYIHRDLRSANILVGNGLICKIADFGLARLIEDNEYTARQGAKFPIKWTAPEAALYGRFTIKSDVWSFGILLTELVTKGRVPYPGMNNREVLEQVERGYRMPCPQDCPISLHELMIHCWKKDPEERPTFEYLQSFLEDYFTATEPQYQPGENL

NC1CCN(c2nc3c(cc2F)c(=O)c(C(=O)O)cn3-c2ccc(F)cc2F)C1 (stereo not given) [TOSUFLOXACIN]
Not Active: IC50 [1] | IC50 (Cytochrome P450 2C19) | Ki (Cytochrome P450 2C19) | IC50 [2] | Ki [2] | IC50 [3] | IC50 [4] | IC50 [5] | IC50 [6]

O=C(Nc1ccc(Br)cc1)c1cc(Br)cc(Br)c1O [TRIBROMSALAN]
Not Active: IC50 [1] | IC50 (Cytochrome P450 2C19) | Ki (Cytochrome P450 2C19) | IC50 [2] | Ki [2] | IC50 [3] | IC50 [4] | IC50 [5] | IC50 [6]

CC(c1cc2ccccc2s1)N(O)C(N)=O (stereo not given) [ZILEUTON]
Not Active: IC50 [1] | IC50 (Cytochrome P450 2C19) | Ki (Cytochrome P450 2C19) | IC50 [2] | Ki [2] | IC50 [3] | IC50 [4] | IC50 [5] | IC50 [6]

MANGANESE CHLORIDE ANHYDROUS
Not Active: IC50 [1] | Ki [1] | IC50 (Cytochrome P450 2C19) | Ki (Cytochrome P450 2C19) | IC50 [2] | Ki [2] | IC50 [3] | Ki [3] | IC50 [4] | Ki [4] | IC50 [5] | Ki [5] | IC50 [6] | Ki [6]

SODIUM ORTHOVANAD
Not Active: IC50 [1] | Ki [1] | IC50 (Cytochrome P450 2C19) | Ki (Cytochrome P450 2C19) | IC50 [2] | Ki [2] | IC50 [3] | Ki [3] | IC50 [4] | Ki [4] | IC50 [5] | Ki [5] | IC50 [6] | Ki [6]
